Our source for the IC50 values is BindingDB's records for doi:10.1021/jm0603668 (Merck Frosst Canada, 2007).

This experiment is described as follows: Activity at human TP receptor in platelet rich plasma assessed as inhibition […]-induced platelet aggregation.

`CC(=O)c1cc(F)cc2c3c(n(Cc4ccc(Cl)cc4)c12)[C@@H](CC(=O)O)CC3` [[(3R)-4-(4-chlorobenzyl)-7-fluoro-5-acetyl-1,2,3,4-tetrahydrocyclopenta-[b]indol-3-yl]acetic acid]: the IC50 (as a rule, the midpoint of a concentration-inhibition curve) came to 1.4 µM.
For the compound `O=C(O)C[C@H]1CCc2c1n(Cc1ccc(Cl)cc1)c1c(Br)cc(F)cc21` [[(3R)-5-bromo-4-(4-chlorobenzyl)-7-fluoro-1,2,3,4-tetrahydrocyclopenta[b]indol-3-yl]acetic acid], the IC50 was found to be 0.08 µM.
